Drawing on ChEMBL document CHEMBL1159307, “Theopederins K and L. Highly potent cytotoxic metabolites from a marine sponge Discodermia species” (J Nat Prod, 2002), this text covers IC50 for three compounds.

Molecules are shown by their SMILES.

In experiment [1] the test system is P388. Description: Cytotoxicity against mouse P388 cells. Type of experiment: functional, cell-based.
Experiment [2] relates to A549. Description: Cytotoxicity against human A549 cells. Type of experiment: functional, cell-based.

As usually defined, the IC50 is the concentration needed to halve the response being measured. High values mean weaker potency in that assay, low ones greater potency in that assay. As for `C=C1C[C@](OC)([C@H](O)C(=O)N[C@H]2OCO[C@H]3[C@@H]2O[C@H](CC(/C=C/C/C=C/C=C/C(=O)OC)OC)C(C)(C)[C@@H]3OC)O[C@H](C)[C@@H]1C` (stereo partly specified) [THEOPEDERIN K METHYL ESTER], the IC50 in experiment [1] turned out to be 0.3 nM; in experiment [2], 0.8 nM.
In the case of `C=C1C[C@](OC)([C@H](O)C(=O)N[C@H]2OCO[C@H]3[C@@H]2O[C@H](CC(/C=C/C/C=C/C=C/C(=O)O)OC)C(C)(C)[C@@H]3OC)O[C@H](C)[C@@H]1C` (stereo partly specified) [THEOPEDERIN K], the IC50 in experiment [1] was 0.1 nM; in experiment [2], 1.5 nM.
For `C=C1C[C@](OC)([C@H](O)C(=O)N[C@H]2OCO[C@H]3[C@@H]2O[C@H](CC(O)/C=C/C/C=C/C=C/C(=O)O)C(C)(C)[C@@H]3OC)O[C@H](C)[C@@H]1C` (stereo partly specified) [THEOPEDERIN L], the 50% inhibitory concentration (IC50) in experiment [1] worked out at 7.3 nM; in experiment [2], 3.2 nM.
